Where “and” joins values, the source holds several entries; their conditions need not be identical. Equal values may be shown once.
Columns and labels:
Assay in all cases: Caliper, Mobility shift assay off-chip
TSSK2 (human) = TSSK2 (human) (UniProt Q96PF2)
BRSK1 (human) = BRSK1 (human) (UniProt Q8TDC3)
CSNK1A1 (human) = CSNK1A1 (human) (UniProt P48729)
SYK (human) = SYK (human) (UniProt P43405)
FGFR3 (human) = FGFR3 (human) (UniProt P22607)
PRKG1 (human) = PRKG1 (human) (UniProt Q13976)
AKT1 (human) = AKT1 (human) (UniProt P31749)
CAMK2D (human) = CAMK2D (human) (UniProt Q13557)
BRSK2 (human) = BRSK2 (human) (UniProt Q8IWQ3)
MAPK14 (human) = MAPK14 (human) (UniProt Q16539)
DCLK2 (human) = DCLK2 (human) (UniProt Q8N568)
PRKD2 (human) = PRKD2 (human) (UniProt Q9BZL6)
CAMK2G (human) = CAMK2G (human) (UniProt Q13555)
LYN (human) = LYN (human) (UniProt P07948)
PRKD3 (human) = PRKD3 (human) (UniProt O94806)
IGF1R (human) = IGF1R (human) (UniProt P08069)
[1] = tested on: FLT3 (human), P36888 [D835Y]
MAPKAPK5 (human) = MAPKAPK5 (human) (UniProt Q8IW41)
MARK3 (human) = MARK3 (human) (UniProt P27448)
PRKCE (human) = PRKCE (human) (UniProt Q02156)
FLT3 (human) = FLT3 (human) (UniProt P36888)
CSNK1D (human) = CSNK1D (human) (UniProt P48730)
IKBKB (human) = IKBKB (human) (UniProt O14920)
GSK3B (human) = GSK3B (human) (UniProt P49841)
MAPKAPK2 (human) = MAPKAPK2 (human) (UniProt P49137)
MAPKAPK3 (human) = MAPKAPK3 (human) (UniProt Q16644)
BMX (human) = BMX (human) (UniProt P51813)
RAF1 (human) = RAF1 (human) (UniProt P04049)
MAPK11 (human) = MAPK11 (human) (UniProt Q15759)
AKT3 (human) = AKT3 (human) (UniProt Q9Y243)
EGFR (human) = EGFR (human) (UniProt P00533)
[2] = tested on: ABL1 (human), P00519 [H396P]
MARK2 (human) = MARK2 (human) (UniProt Q7KZI7)
MAPK3 (human) = MAPK3 (human) (UniProt P27361)

TSSK2 (human), sequence (Q96PF2 whole entry, looked up): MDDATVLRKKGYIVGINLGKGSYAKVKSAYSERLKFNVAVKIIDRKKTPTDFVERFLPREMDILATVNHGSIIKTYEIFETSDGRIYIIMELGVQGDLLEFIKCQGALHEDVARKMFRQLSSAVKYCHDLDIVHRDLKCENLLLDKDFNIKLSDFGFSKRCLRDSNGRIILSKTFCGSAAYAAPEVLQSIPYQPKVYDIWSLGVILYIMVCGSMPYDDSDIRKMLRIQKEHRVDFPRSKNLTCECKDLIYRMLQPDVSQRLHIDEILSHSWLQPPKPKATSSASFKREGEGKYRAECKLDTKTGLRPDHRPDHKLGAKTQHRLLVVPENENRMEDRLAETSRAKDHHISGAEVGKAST
FGFR3 (human), sequence (P22607 whole entry, looked up): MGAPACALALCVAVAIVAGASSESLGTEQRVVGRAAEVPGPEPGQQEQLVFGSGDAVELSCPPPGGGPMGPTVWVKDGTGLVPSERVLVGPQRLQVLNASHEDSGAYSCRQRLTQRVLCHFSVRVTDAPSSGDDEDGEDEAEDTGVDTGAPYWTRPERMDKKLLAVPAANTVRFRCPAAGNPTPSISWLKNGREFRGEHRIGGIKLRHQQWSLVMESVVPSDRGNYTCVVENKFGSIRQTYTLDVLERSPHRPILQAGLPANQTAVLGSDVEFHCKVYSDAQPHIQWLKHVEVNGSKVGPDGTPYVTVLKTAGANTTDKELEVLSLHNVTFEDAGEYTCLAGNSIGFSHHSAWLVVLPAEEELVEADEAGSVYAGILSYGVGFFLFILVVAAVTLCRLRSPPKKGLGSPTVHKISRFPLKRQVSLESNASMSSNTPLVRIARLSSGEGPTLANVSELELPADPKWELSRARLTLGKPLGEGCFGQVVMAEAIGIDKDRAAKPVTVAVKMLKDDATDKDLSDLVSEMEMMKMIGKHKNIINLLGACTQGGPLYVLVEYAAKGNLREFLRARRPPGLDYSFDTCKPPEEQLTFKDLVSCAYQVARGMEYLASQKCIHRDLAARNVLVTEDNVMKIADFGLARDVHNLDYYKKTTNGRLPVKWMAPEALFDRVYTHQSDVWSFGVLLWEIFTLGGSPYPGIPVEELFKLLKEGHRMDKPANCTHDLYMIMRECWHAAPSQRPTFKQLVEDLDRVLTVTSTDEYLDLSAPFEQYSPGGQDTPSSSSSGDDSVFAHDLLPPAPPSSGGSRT
PRKG1 (human), sequence (Q13976 whole entry, looked up): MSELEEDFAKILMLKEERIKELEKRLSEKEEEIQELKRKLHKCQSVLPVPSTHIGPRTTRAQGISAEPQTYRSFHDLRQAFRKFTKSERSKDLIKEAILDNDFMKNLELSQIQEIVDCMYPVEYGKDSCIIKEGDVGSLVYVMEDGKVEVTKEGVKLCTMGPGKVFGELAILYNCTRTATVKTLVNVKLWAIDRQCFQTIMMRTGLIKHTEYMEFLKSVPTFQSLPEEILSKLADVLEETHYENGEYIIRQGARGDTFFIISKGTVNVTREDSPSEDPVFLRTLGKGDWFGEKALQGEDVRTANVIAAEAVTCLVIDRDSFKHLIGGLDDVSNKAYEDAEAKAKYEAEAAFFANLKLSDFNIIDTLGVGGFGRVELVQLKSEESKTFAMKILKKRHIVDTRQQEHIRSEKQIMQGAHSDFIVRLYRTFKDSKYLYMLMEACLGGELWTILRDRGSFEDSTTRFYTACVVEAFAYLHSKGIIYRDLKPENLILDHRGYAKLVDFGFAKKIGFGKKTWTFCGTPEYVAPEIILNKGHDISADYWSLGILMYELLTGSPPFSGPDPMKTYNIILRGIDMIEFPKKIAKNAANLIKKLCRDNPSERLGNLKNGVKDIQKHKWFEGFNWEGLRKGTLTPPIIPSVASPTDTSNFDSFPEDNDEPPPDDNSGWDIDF
MAPK11 (human), sequence (Q15759 whole entry, looked up): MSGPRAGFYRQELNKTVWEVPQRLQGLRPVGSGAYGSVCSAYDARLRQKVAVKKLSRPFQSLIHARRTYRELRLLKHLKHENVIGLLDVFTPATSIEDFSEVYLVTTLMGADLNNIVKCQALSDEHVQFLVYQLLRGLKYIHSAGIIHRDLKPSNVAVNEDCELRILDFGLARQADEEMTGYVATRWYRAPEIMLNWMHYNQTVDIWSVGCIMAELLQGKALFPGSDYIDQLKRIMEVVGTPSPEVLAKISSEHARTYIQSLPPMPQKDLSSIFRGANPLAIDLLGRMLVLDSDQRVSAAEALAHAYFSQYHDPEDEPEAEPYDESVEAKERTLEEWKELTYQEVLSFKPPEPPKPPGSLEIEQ
MARK3 (human), sequence (P27448 whole entry, looked up): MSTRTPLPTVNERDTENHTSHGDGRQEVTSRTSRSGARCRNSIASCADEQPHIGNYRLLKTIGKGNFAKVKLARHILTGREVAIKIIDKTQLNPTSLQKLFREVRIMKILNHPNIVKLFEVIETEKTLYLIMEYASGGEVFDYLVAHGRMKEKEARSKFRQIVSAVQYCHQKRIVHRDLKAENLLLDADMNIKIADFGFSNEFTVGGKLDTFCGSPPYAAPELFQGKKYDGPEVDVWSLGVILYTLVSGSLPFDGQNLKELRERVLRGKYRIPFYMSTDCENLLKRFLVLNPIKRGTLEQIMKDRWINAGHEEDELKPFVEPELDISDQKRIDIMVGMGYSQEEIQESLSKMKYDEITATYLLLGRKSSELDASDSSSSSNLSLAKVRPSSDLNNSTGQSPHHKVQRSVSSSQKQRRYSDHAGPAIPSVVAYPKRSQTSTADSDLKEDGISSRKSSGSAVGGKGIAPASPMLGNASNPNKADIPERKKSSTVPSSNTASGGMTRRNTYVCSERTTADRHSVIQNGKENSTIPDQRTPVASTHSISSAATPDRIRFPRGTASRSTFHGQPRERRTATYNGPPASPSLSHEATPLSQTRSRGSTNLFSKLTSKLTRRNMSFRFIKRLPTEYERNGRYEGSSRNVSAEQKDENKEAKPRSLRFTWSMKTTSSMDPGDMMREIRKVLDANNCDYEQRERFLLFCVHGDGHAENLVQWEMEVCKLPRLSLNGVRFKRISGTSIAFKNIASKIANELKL
MAPKAPK2 (human), sequence (P49137 whole entry, looked up): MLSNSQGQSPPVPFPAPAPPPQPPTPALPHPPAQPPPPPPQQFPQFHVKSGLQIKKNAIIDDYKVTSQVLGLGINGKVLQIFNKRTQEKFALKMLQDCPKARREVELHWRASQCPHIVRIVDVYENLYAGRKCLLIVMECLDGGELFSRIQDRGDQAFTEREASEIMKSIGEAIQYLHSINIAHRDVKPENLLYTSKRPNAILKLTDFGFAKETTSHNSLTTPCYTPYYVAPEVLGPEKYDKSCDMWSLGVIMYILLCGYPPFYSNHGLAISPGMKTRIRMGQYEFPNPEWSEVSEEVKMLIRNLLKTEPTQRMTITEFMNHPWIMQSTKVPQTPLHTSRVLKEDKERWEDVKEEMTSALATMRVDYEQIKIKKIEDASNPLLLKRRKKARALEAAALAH
MAPKAPK3 (human), sequence (Q16644 whole entry, looked up): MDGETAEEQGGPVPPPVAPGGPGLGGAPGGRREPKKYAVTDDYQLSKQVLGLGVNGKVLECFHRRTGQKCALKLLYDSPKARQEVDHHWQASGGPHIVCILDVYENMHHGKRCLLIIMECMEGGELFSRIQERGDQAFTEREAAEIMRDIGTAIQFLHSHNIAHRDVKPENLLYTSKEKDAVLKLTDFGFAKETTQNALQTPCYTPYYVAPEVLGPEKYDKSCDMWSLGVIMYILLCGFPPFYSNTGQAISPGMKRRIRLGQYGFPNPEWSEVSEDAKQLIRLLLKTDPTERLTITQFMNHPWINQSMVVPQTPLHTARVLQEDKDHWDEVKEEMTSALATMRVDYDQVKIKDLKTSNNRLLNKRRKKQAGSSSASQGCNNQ
MAPKAPK5 (human), sequence (Q8IW41 whole entry, looked up): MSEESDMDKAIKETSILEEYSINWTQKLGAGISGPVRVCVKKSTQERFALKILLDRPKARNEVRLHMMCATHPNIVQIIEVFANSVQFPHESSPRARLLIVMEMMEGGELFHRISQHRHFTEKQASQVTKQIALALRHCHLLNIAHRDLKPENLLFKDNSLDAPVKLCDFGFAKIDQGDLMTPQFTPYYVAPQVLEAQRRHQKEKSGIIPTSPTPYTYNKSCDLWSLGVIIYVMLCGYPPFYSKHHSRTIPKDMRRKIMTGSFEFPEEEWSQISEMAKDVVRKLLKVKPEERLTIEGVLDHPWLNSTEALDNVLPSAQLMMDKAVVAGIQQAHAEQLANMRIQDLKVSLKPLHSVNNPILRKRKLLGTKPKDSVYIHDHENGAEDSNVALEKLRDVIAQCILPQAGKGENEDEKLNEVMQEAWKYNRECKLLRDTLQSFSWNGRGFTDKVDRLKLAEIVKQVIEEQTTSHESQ
CSNK1A1 (human), sequence (P48729 whole entry, looked up): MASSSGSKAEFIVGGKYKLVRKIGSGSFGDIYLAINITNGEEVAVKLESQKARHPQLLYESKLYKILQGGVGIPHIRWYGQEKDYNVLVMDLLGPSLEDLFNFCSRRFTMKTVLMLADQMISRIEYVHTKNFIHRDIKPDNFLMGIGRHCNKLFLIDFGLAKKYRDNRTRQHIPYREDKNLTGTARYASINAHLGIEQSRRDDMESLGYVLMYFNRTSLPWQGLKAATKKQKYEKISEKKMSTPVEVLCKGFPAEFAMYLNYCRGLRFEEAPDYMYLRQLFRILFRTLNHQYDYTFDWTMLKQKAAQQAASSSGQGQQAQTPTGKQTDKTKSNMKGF
MAPK14 (human), sequence (Q16539 whole entry, looked up): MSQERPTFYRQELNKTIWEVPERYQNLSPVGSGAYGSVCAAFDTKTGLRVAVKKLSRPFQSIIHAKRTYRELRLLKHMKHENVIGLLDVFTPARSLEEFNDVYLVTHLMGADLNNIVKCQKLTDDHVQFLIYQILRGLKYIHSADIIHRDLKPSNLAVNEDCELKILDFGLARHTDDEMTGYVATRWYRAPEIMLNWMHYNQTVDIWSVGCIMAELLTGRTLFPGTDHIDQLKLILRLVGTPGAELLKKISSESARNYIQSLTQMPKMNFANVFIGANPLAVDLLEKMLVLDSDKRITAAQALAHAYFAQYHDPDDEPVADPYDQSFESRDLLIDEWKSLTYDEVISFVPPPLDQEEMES

With `Cn1cc(-c2cnc3ccc4ccc(CS(=O)(=O)NC5CCCCC5)cc4c(=O)c3c2)cn1` the inhibition (TSSK2 (human); compound 0.01 µM) was 2.5%, the inhibition (TSSK2 (human); compound 0.1 µM) was 0.7% and the inhibition (BRSK1 (human); compound 0.01 µM) was -2.1%. It also gave an inhibition (BRSK1 (human); compound 0.1 µM) of -1.6%, an inhibition (CSNK1A1 (human); compound 0.01 µM) of -2.8% and an inhibition (CSNK1A1 (human); compound 0.1 µM) of 10.2%. It also gave an inhibition (SYK (human); compound 0.01 µM) of 1.3%, an inhibition (SYK (human); compound 0.1 µM) of -4.4% and an inhibition (FGFR3 (human); compound 0.01 µM) of -4%. The inhibition (FGFR3 (human); compound 0.1 µM) was 7.8%, the inhibition (PRKG1 (human); compound 0.01 µM) was 3.2% and -1.8% and the inhibition (PRKG1 (human); compound 0.1 µM) was 9.2% and -4.9%. For the same molecule, the inhibition (AKT1 (human); compound 0.01 µM) was 0.8%, the inhibition (AKT1 (human); compound 0.1 µM) was 7.4% and the inhibition (CAMK2D (human); compound 0.01 µM) was 2.4%. It also gave an inhibition (CAMK2D (human); compound 0.1 µM) of -6.5%, an inhibition (BRSK2 (human); compound 0.01 µM) of 0.3% and an inhibition (BRSK2 (human); compound 0.1 µM) of 9.7%. For the same molecule, the inhibition (MAPK14 (human); compound 0.01 µM) was -1.7%, the inhibition (MAPK14 (human); compound 0.1 µM) was -2.6% and the inhibition (DCLK2 (human); compound 0.01 µM) was 1.7%. It also gave an inhibition (DCLK2 (human); compound 0.1 µM) of 7.8%, an inhibition (PRKD2 (human); compound 0.01 µM) of 1.6% and an inhibition (PRKD2 (human); compound 0.1 µM) of -3.6%. It also gave an inhibition (CAMK2G (human); compound 0.01 µM) of 13.5%, an inhibition (CAMK2G (human); compound 0.1 µM) of -2.8% and an inhibition (LYN (human); compound 0.01 µM) of 9.1%. For the same molecule, the inhibition (LYN (human); compound 0.1 µM) was 3.6%, the inhibition (PRKD3 (human); compound 0.01 µM) was -2.4% and the inhibition (PRKD3 (human); compound 0.1 µM) was 10.4%. The inhibition (IGF1R (human); compound 0.01 µM) was 3.9%, the inhibition (IGF1R (human); compound 0.1 µM) was -7.9% and the inhibition ([1]; compound 0.01 µM) was -3%. For the same molecule, the inhibition ([1]; compound 0.1 µM) was 6.8%, the inhibition (MAPKAPK5 (human); compound 0.01 µM) was -2.5% and the inhibition (MAPKAPK5 (human); compound 0.1 µM) was 6.9%. It also gave an inhibition (MARK3 (human); compound 0.01 µM) of -3.5%, an inhibition (MARK3 (human); compound 0.1 µM) of -0.6% and an inhibition (PRKCE (human); compound 0.01 µM) of -0.5%. The inhibition (PRKCE (human); compound 0.1 µM) was 3.8%, the inhibition (FLT3 (human); compound 0.01 µM) was -1% and the inhibition (FLT3 (human); compound 0.1 µM) was -2.3%. For the same molecule, the inhibition (CSNK1D (human); compound 0.01 µM) was -3.5%, the inhibition (CSNK1D (human); compound 0.1 µM) was 8.9% and the inhibition (IKBKB (human); compound 0.01 µM) was 3.8%. The inhibition (IKBKB (human); compound 0.1 µM) was -0.4%, the inhibition (GSK3B (human); compound 0.01 µM) was 4.9% and the inhibition (GSK3B (human); compound 0.1 µM) was 1.3%. The inhibition (MAPKAPK2 (human); compound 0.01 µM) was -0.8%, the inhibition (MAPKAPK2 (human); compound 0.1 µM) was -0.9% and the inhibition (MAPKAPK3 (human); compound 0.01 µM) was -8%. For the same molecule, the inhibition (MAPKAPK3 (human); compound 0.1 µM) was 4.1%, the inhibition (BMX (human); compound 0.01 µM) was -1% and the inhibition (BMX (human); compound 0.1 µM) was -7.1%. It also gave an inhibition (RAF1 (human); compound 0.01 µM) of 2.2%, an inhibition (RAF1 (human); compound 0.1 µM) of 4.5% and an inhibition (MAPK11 (human); compound 0.01 µM) of -7.7%. It also gave an inhibition (MAPK11 (human); compound 0.1 µM) of 4.9%, an inhibition (AKT3 (human); compound 0.01 µM) of -2.7% and an inhibition (AKT3 (human); compound 0.1 µM) of 5.2%. The inhibition (EGFR (human); compound 0.01 µM) was -7.2%, the inhibition (EGFR (human); compound 0.1 µM) was -1% and the inhibition ([2]; compound 0.01 µM) was 2.2%. For the same molecule, the inhibition ([2]; compound 0.1 µM) was 0.5%, the inhibition (MARK2 (human); compound 0.01 µM) was -2.5% and the inhibition (MARK2 (human); compound 0.1 µM) was -1.4%.

`Cn1cc(-c2cnc3ccc4ccc(CS(N)(=O)=O)cc4c(=O)c3c2)cn1` showed an inhibition (TSSK2 (human); compound 0.1 µM) of -37%, an inhibition (TSSK2 (human); compound 1.0 µM) of 10.5% and an inhibition (BRSK1 (human); compound 0.1 µM) of 5.6%. The inhibition (BRSK1 (human); compound 1.0 µM) was 12.5%, the inhibition (CSNK1A1 (human); compound 0.1 µM) was -2.8% and the inhibition (CSNK1A1 (human); compound 1.0 µM) was -4.1%. It also gave an inhibition (SYK (human); compound 0.1 µM) of 1.9%, an inhibition (SYK (human); compound 1.0 µM) of 7.6% and an inhibition (FGFR3 (human); compound 0.1 µM) of 41.1%. For the same molecule, the inhibition (FGFR3 (human); compound 1.0 µM) was 57.9%, the inhibition (PRKG1 (human); compound 0.1 µM) was -0.5% and 2.6% and the inhibition (PRKG1 (human); compound 1.0 µM) was 9.6% and -5.9%. For the same molecule, the inhibition (AKT1 (human); compound 0.1 µM) was -2.2%, the inhibition (AKT1 (human); compound 1.0 µM) was 1.3% and the inhibition (CAMK2D (human); compound 0.1 µM) was 4.9%. For the same molecule, the inhibition (CAMK2D (human); compound 1.0 µM) was 25.1%, the inhibition (MAPK14 (human); compound 0.1 µM) was -13.9% and the inhibition (MAPK14 (human); compound 1.0 µM) was 6.9%. It also gave an inhibition (DCLK2 (human); compound 0.1 µM) of 1.7%, an inhibition (DCLK2 (human); compound 1.0 µM) of 8.4% and an inhibition (PRKD2 (human); compound 0.1 µM) of 7.3%. It also gave an inhibition (PRKD2 (human); compound 1.0 µM) of -2.6%, an inhibition (CAMK2G (human); compound 0.1 µM) of -17.9% and an inhibition (CAMK2G (human); compound 1.0 µM) of -1.6%. For the same molecule, the inhibition (LYN (human); compound 0.1 µM) was -8.7%, the inhibition (LYN (human); compound 1.0 µM) was -2.3% and the inhibition (PRKD3 (human); compound 0.1 µM) was -8.8%. For the same molecule, the inhibition (PRKD3 (human); compound 1.0 µM) was -1.8%, the inhibition (IGF1R (human); compound 0.1 µM) was -3.7% and the inhibition (IGF1R (human); compound 1.0 µM) was 1.8%. It also gave an inhibition ([1]; compound 0.1 µM) of 19.1%, an inhibition ([1]; compound 1.0 µM) of 73.7% and an inhibition (MAPKAPK5 (human); compound 0.1 µM) of 1.3%. The inhibition (MAPKAPK5 (human); compound 1.0 µM) was -7.9%, the inhibition (MARK3 (human); compound 0.1 µM) was -2.4% and the inhibition (MARK3 (human); compound 1.0 µM) was -3.3%. The inhibition (PRKCE (human); compound 0.1 µM) was -4.6%, the inhibition (PRKCE (human); compound 1.0 µM) was 5.9% and the inhibition (FLT3 (human); compound 0.1 µM) was 4.2%. For the same molecule, the inhibition (FLT3 (human); compound 1.0 µM) was 48.8%, the inhibition (CSNK1D (human); compound 0.1 µM) was 7.6% and the inhibition (CSNK1D (human); compound 1.0 µM) was 11.1%. The inhibition (IKBKB (human); compound 0.1 µM) was -12%, the inhibition (IKBKB (human); compound 1.0 µM) was 4.2% and the inhibition (GSK3B (human); compound 0.1 µM) was -2.7%. The inhibition (GSK3B (human); compound 1.0 µM) was 9.3%, the inhibition (MAPKAPK2 (human); compound 0.1 µM) was -2.6% and the inhibition (MAPKAPK2 (human); compound 1.0 µM) was 8%. For the same molecule, the inhibition (MAPKAPK3 (human); compound 0.1 µM) was 5.4%, the inhibition (MAPKAPK3 (human); compound 1.0 µM) was 5.7% and the inhibition (BMX (human); compound 0.1 µM) was 1.6%. For the same molecule, the inhibition (RAF1 (human); compound 0.1 µM) was 6.2%, the inhibition (RAF1 (human); compound 1.0 µM) was -3.8% and the inhibition (MAPK11 (human); compound 0.1 µM) was -1.8%. It also gave an inhibition (MAPK11 (human); compound 1.0 µM) of -4.1%, an inhibition (AKT3 (human); compound 0.1 µM) of 3.1% and an inhibition (AKT3 (human); compound 1.0 µM) of 3.13%. It also gave an inhibition (MAPK3 (human); compound 0.1 µM) of -0.7%, an inhibition (MAPK3 (human); compound 1.0 µM) of 3.6% and an inhibition (EGFR (human); compound 0.1 µM) of 13.3%. It also gave an inhibition (EGFR (human); compound 1.0 µM) of 9.2%, an inhibition ([2]; compound 0.1 µM) of -0.9% and an inhibition ([2]; compound 1.0 µM) of 9.4%.
